Results: patent EP4722207A1, “OXOISOINDOLINYL-SUBSTITUTED TETRAHYDROPYRIMIDINEDIONE DERIVATIVE AND USE THEREOF” (Gluetacs Therapeutics (Shanghai) Co., Ltd., priority 2023, dated 2024)
One block for each compound: values may come before it.

What was measured:
IKZF3 = molecular target: T1, IKZF3 (Homo sapiens, UniProt Q96SW2+Q9UKT9); assay: Western-blot assay, substrate protein degradation in hPBMCs: IKZF3; format: cell-based; conditions: for IKZF3 substrate protein remaining %: compounds at 50 nM and 500 nM, 24 hours; for substrate protein remaining % IKZF3: 24 hours of compound treatment, 50 nM and 500 nM
T1 construct: effects of the compounds of the present disclosure on the expression of target proteins in cells; endogenous in cells; host or cells: human PBMCs (hPBMCs)

WEE1 = molecular target: T2, WEE1 (Homo sapiens, UniProt P30291+Q96SW2); assay: Western-blot assay, substrate protein degradation in hPBMCs: WEE1; format: cell-based; conditions: for WEE1 substrate protein remaining %: compounds at 50 nM and 500 nM, 24 hours; for substrate protein remaining % WEE1: 24 hours of compound treatment, 50 nM and 500 nM
T2 construct: effects of the compounds of the present disclosure on the expression of target proteins in cells; endogenous in cells; host or cells: human PBMCs (hPBMCs)

GSPT1 = molecular target: T3, GSPT1 (Homo sapiens, UniProt P15170+Q96SW2); assay: Western-blot assay, substrate protein degradation in hPBMCs: GSPT1; format: cell-based; conditions: for GSPT1 substrate protein remaining %: compounds at 50 nM and 500 nM, 24 hours; for substrate protein remaining % GSPT1: 24 hours of compound treatment, 50 nM and 500 nM
T3 construct: effects of the compounds of the present disclosure on the expression of target proteins in cells; endogenous in cells; host or cells: human PBMCs (hPBMCs)

Jurkat = assay: Cell viability assay (CellTiter-Meiluncell Luminescent), tumor cell proliferation, Jurkat; conditions: Homo sapiens, 96 h, read-out: inhibitory activity (IC50, nM) against tumor cells proliferation, Jurkat
Experimental: On the following day, the test compounds of the present disclosure were subjected to serial dilution. […] Subsequently, 0.5 µL of the test compound dilution was transferred into the 96-well plate containing the cells, with each well containing 100 µL of cell culture medium. […] Into the 96-well plate, the diluted test compounds and corresponding detection reagents were added, resulting in final test compound concentrations of 500 nM and 10 nM, respectively.
(§1) After the cells were treated with the compounds of the present disclosure for a specified period, the cell viability assay reagent was added to the culture medium according to the kit's instructions to determine cell viability. […] All controls were treated using the same procedure as the compounds of the present disclosure. The growth inhibition curves for the compounds of the present disclosure were plotted using Prism GraphPad software, and the IC50 values were calculated therefrom.

IKZF2 = molecular target: T4, IKZF2 (Homo sapiens, UniProt Q96SW2+Q9UKS7); assay: Western-blot assay, substrate protein degradation in hPBMCs: IKZF2; format: cell-based; conditions: for IKZF2 substrate protein remaining %: compounds at 50 nM and 500 nM, 24 hours; for substrate protein remaining % IKZF2: 24 hours of compound treatment, 50 nM and 500 nM
T4 construct: effects of the compounds of the present disclosure on the expression of target proteins in cells; endogenous in cells; host or cells: human PBMCs (hPBMCs)

MM.1S = assay: Cell viability assay (CellTiter-Meiluncell Luminescent), tumor cell proliferation, MM.1S; conditions: Homo sapiens, MM1.S, 96 h; for inhibition at 0.01 µM: read-out: Inhibition Rate at 10 nM (%); for inhibition at 0.5 µM: read-out: Inhibition Rate at 500 nM (%)
Experimental: (§2) The tumor cells used herein were cultured in a cell culture medium listed in table 2 at 37°C in an incubator with 5% CO2. Prior to experimentation, all cell lines used were correctly identified by STR profiling, and tested negative for mycoplasma contamination using a mycoplasma detection kit through routine screenings.
(§3) On the following day, the test compounds of the present disclosure were subjected to serial dilution. […] Subsequently, 0.5 µL of the test compound dilution was transferred into the 96-well plate containing the cells, with each well containing 100 µL of cell culture medium. […] Into the 96-well plate, the diluted test compounds and corresponding detection reagents were added, resulting in final test compound concentrations of 500 nM and 10 nM, respectively. The experimental procedure is described below using the diluted 2 µM test compound as an example.
as §1

CK1α = molecular target: T5, CK1α (Homo sapiens, UniProt P48729+Q96SW2); assay: Western-blot assay, substrate protein degradation in hPBMCs: CK1α; format: cell-based; conditions: for CK1α substrate protein remaining %: compounds at 50 nM and 500 nM, 24 hours; for substrate protein remaining % CK1α: 24 hours of compound treatment, 50 nM and 500 nM
T5 construct: effects of the compounds of the present disclosure on the expression of target proteins in cells; endogenous in cells; host or cells: human PBMCs (hPBMCs)

IKZF1 = molecular target: T6, IKZF1 (Homo sapiens, UniProt Q13422+Q96SW2); assay: Western-blot assay, substrate protein degradation in hPBMCs: IKZF1; format: cell-based; conditions: for IKZF1 substrate protein remaining %: compounds at 50 nM and 500 nM, 24 hours; for substrate protein remaining % IKZF1: 24 hours of compound treatment, 50 nM and 500 nM
T6 construct: effects of the compounds of the present disclosure on the expression of target proteins in cells; endogenous in cells; host or cells: human PBMCs (hPBMCs)

MV-4-11 = assay: Cell viability assay (CellTiter-Meiluncell Luminescent), tumor cell proliferation, MV-4-11; conditions: Homo sapiens, MV4-11, 96 h; for IC50: read-out: inhibitory activity (IC50, nM) against tumor cells proliferation, MV-4-11; for inhibition at 0.01 µM: read-out: Inhibition Rate at 10 nM (%); for inhibition at 0.5 µM: read-out: Inhibition Rate at 500 nM (%)
H2228 = assay: Cell viability assay (CellTiter-Meiluncell Luminescent), tumor cell proliferation, H2228; conditions: Homo sapiens, NCI-H2228, 96 h; for inhibition at 0.01 µM: read-out: Inhibition Rate at 10 nM (%); for inhibition at 0.5 µM: read-out: Inhibition Rate at 500 nM (%)
Experimental: as §2, §3, §1

MDA-MB-231 = assay: Cell viability assay (CellTiter-Meiluncell Luminescent), tumor cell proliferation, MDA-MB-231; conditions: Homo sapiens, MDA-MB-231, 96 h; for inhibition at 0.01 µM: read-out: Inhibition Rate at 10 nM (%); for inhibition at 0.5 µM: read-out: Inhibition Rate at 500 nM (%)
H292 = assay: Cell viability assay (CellTiter-Meiluncell Luminescent), tumor cell proliferation, H292; conditions: Homo sapiens, NCI-H292, 96 h; for inhibition at 0.01 µM: read-out: Inhibition Rate at 10 nM (%); for inhibition at 0.5 µM: read-out: Inhibition Rate at 500 nM (%)

T2 sequence (P30291 whole entry): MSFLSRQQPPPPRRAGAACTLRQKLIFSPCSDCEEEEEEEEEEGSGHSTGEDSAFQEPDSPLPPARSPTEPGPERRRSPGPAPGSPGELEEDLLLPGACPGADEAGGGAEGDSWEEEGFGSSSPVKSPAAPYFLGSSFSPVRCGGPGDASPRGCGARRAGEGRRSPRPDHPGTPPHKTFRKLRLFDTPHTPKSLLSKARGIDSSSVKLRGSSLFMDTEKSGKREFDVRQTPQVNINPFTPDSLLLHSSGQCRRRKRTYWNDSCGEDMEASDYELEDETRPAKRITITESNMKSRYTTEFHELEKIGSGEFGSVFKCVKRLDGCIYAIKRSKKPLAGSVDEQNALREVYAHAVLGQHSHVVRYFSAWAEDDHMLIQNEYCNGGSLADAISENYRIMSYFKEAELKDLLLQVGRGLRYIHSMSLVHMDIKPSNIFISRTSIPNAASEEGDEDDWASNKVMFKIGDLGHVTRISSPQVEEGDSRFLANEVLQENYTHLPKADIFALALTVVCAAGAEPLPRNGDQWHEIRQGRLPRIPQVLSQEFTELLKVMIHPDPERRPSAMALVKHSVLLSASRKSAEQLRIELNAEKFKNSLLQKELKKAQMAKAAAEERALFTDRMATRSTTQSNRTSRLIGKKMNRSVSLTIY
T2 sequence (Q96SW2 whole entry): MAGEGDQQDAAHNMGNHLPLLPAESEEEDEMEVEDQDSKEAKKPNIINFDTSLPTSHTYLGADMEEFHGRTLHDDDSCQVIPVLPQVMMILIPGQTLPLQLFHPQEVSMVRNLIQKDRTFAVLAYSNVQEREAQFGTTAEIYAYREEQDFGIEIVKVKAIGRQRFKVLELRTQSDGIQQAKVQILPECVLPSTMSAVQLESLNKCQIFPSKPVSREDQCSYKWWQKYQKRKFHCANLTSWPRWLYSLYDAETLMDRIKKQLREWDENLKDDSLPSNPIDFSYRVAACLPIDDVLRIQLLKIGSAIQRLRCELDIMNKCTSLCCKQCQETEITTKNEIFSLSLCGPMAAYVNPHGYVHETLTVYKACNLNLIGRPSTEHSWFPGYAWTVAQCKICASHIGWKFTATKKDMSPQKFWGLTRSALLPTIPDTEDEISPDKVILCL
T2 sequence (Q16531 whole entry partner): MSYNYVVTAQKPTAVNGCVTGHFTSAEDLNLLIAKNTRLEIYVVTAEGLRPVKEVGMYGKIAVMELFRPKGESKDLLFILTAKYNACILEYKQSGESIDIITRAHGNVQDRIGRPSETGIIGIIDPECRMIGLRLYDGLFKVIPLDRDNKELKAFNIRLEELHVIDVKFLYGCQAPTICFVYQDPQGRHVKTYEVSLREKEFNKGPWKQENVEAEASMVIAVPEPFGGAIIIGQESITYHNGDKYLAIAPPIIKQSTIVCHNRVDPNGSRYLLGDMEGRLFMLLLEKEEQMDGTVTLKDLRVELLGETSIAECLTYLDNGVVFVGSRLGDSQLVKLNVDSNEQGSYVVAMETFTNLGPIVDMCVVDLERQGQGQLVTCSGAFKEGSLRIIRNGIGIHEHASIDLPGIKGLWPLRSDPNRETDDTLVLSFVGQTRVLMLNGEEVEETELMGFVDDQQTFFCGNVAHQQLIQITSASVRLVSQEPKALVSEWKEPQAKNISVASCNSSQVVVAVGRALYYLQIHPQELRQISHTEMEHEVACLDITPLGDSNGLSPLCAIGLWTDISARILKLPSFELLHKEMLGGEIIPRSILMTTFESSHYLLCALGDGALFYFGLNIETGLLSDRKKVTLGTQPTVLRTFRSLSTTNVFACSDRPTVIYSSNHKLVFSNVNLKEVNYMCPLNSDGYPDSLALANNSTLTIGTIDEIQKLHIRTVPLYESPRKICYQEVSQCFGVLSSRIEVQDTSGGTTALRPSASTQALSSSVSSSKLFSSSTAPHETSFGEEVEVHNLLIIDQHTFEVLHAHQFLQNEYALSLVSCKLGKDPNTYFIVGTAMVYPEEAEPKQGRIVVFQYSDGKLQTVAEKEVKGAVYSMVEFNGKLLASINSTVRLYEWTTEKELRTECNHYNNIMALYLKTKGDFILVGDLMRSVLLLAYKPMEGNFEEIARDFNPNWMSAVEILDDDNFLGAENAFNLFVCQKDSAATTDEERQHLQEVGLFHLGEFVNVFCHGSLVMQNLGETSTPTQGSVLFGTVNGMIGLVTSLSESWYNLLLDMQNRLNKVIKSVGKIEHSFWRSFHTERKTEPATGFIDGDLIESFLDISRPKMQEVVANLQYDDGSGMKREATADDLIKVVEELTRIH
T6 sequence (Q13422 whole entry): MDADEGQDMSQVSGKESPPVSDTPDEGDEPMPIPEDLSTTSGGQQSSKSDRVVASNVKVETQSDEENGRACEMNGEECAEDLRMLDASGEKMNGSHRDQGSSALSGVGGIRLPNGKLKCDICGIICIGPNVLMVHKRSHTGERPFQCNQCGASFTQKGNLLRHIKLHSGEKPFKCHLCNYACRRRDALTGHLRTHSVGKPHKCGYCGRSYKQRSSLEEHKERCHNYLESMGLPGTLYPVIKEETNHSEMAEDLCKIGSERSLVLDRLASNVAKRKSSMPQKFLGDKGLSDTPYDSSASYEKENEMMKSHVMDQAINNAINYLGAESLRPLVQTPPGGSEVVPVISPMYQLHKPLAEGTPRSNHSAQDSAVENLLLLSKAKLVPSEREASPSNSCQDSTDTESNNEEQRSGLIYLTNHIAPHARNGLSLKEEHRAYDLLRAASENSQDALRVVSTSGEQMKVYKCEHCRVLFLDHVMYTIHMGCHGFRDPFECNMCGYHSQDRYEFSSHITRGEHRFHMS
T6 sequence (Q96SW2 whole entry): as the sequence (Q96SW2 whole entry) above
T6 sequence (Q16531 whole entry partner): as the sequence (Q16531 whole entry partner) above
T5 sequence (P48729 whole entry): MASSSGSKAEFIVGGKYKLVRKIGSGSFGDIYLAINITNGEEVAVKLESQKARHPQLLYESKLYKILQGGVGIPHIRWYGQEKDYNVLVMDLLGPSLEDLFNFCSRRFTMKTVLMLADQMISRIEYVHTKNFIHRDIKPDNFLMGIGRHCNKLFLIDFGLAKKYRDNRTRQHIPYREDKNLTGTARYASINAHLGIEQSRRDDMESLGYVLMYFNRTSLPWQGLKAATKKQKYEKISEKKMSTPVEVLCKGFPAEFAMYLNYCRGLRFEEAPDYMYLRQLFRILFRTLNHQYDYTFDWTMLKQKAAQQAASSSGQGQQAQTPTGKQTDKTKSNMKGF
T5 sequence (Q96SW2 whole entry): as the sequence (Q96SW2 whole entry) above
T5 sequence (Q16531 whole entry partner): as the sequence (Q16531 whole entry partner) above
T3 sequence (P15170 whole entry): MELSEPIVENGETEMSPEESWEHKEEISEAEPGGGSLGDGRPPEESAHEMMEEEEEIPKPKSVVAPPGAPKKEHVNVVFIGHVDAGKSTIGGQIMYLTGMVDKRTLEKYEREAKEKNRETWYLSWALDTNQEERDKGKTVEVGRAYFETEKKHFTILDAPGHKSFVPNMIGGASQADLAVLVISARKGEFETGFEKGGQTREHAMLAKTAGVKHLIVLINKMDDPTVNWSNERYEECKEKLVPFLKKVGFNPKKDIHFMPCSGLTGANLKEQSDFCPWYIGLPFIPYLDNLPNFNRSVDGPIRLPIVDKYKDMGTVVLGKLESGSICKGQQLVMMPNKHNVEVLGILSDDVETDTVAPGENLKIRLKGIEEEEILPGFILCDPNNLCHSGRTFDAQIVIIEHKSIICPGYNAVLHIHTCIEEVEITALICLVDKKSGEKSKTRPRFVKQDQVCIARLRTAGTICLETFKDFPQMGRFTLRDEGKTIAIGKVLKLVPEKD
T3 sequence (Q96SW2 whole entry): as the sequence (Q96SW2 whole entry) above
T3 sequence (Q16531 whole entry partner): as the sequence (Q16531 whole entry partner) above
T4 sequence (Q9UKS7 whole entry): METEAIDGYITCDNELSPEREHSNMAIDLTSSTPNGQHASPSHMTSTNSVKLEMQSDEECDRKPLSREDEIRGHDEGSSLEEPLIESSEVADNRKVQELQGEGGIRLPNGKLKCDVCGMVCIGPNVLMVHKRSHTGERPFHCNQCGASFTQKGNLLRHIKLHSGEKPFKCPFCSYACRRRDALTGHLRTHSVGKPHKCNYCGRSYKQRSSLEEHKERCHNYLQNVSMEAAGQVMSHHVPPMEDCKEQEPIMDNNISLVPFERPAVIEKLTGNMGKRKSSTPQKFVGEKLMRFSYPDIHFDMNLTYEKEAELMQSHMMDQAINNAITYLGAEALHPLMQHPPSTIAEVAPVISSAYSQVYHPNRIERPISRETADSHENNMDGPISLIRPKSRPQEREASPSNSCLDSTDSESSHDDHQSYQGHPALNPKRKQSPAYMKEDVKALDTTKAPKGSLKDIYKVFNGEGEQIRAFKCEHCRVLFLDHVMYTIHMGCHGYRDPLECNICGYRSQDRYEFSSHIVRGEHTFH
T4 sequence (Q96SW2 whole entry): as the sequence (Q96SW2 whole entry) above
T4 sequence (Q16531 whole entry partner): as the sequence (Q16531 whole entry partner) above

Compound: O=C1CCN(N2Cc3cc(CN4CC=C(c5ccco5)CC4)ccc3C2=O)C(=O)N1 [GT-04874, 1-(5-((4-(furan-2-yl)-3,6-dihydropyridin-1(2H)-yl)methyl)-1-oxoisoindolin-2-yl)dihydropyrimidine-2,4(1H,3H)-dione]
IKZF3 substrate protein remaining % (IKZF3): A ("A" is defined as 0% ≤ substrate protein remaining % ≤ 80%)
WEE1 substrate protein remaining % (WEE1): A ("A" is defined as 0% ≤ substrate protein remaining % ≤ 80%)
GSPT1 substrate protein remaining % (GSPT1): A ("A" is defined as 0% ≤ substrate protein remaining % ≤ 80%)
IC50 (Jurkat): 500 to 1000 nM
IKZF2 substrate protein remaining % (IKZF2): B ("B" is defined as 80%< substrate protein remaining %≤ 100%)
IC50 (MM.1S; read-out: inhibitory activity (IC50, nM) against tumor cells proliferation, MM.1S): 100 to 300 nM
CK1α substrate protein remaining % (CK1α): B ("B" is defined as 80%< substrate protein remaining %≤ 100%)
IKZF1 substrate protein remaining % (IKZF1): A ("A" is defined as 0% ≤ substrate protein remaining % ≤ 80%)

IC50 (MV-4-11): 500 to 1000 nM
IC50 (Jurkat): 500 to 1000 nM
Compound: Cc1cccc(N2CCN(Cc3ccc4c(c3)CN(N3CCC(=O)NC3=O)C4=O)CC2)c1 [GT-06770, 1-(1-oxo-5-((4-(m-tolyl)piperazin-1-yl)methyl)isoindolin-2-yl)dihydropyrimidine-2,4(1H,3H)-dione]
IKZF3 substrate protein remaining % (IKZF3): A ("A" is defined as 0% ≤ substrate protein remaining % ≤ 80%)
WEE1 substrate protein remaining % (WEE1): A ("A" is defined as 0% ≤ substrate protein remaining % ≤ 80%)
GSPT1 substrate protein remaining % (GSPT1): A ("A" is defined as 0% ≤ substrate protein remaining % ≤ 80%)
IKZF2 substrate protein remaining % (IKZF2): A ("A" is defined as 0% ≤ substrate protein remaining % ≤ 80%)
CK1α substrate protein remaining % (CK1α): A ("A" is defined as 0% ≤ substrate protein remaining % ≤ 80%)
IKZF1 substrate protein remaining % (IKZF1): A ("A" is defined as 0% ≤ substrate protein remaining % ≤ 80%)

IC50 (MV-4-11): 100 to 300 nM
IC50 (Jurkat): 500 to 1000 nM
Compound: O=C1CCN(N2Cc3cc(CN4CCN(c5cc(Cl)cc(Cl)c5)CC4)ccc3C2=O)C(=O)N1 [GT-06776, 1-(5-((4-(3,5-dichlorophenyl)piperazin-1-yl)methyl)-1-oxoisoindolin-2-yl)dihydropyrimidine-2,4(1H,3H)-dione]
IKZF3 substrate protein remaining % (IKZF3): B ("B" is defined as 80%< substrate protein remaining %≤ 100%)
WEE1 substrate protein remaining % (WEE1): A ("A" is defined as 0% ≤ substrate protein remaining % ≤ 80%)
GSPT1 substrate protein remaining % (GSPT1): A ("A" is defined as 0% ≤ substrate protein remaining % ≤ 80%)
IKZF2 substrate protein remaining % (IKZF2): A ("A" is defined as 0% ≤ substrate protein remaining % ≤ 80%)
CK1α substrate protein remaining % (CK1α): A ("A" is defined as 0% ≤ substrate protein remaining % ≤ 80%)
IKZF1 substrate protein remaining % (IKZF1): B ("B" is defined as 80%< substrate protein remaining %≤ 100%)

IC50 (MV-4-11): 100 to 300 nM
IC50 (Jurkat): 500 to 1000 nM
Compound: O=C1CCN(N2Cc3cc(CN4CCC(c5cccc(Cl)c5Cl)CC4)ccc3C2=O)C(=O)N1 [GT-06893, 1-(5-((4-(2,3-dichlorophenyl)piperidin-1-yl)methyl)-1-oxoisoindolin-2-yl)dihydropyrimidine-2,4(1H,3H)-dione]
IKZF3 substrate protein remaining % (IKZF3): B ("B" is defined as 80%< substrate protein remaining %≤ 100%)
WEE1 substrate protein remaining % (WEE1): B ("B" is defined as 80%< substrate protein remaining %≤ 100%)
GSPT1 substrate protein remaining % (GSPT1): A ("A" is defined as 0% ≤ substrate protein remaining % ≤ 80%)
IKZF2 substrate protein remaining % (IKZF2): A ("A" is defined as 0% ≤ substrate protein remaining % ≤ 80%)
CK1α substrate protein remaining % (CK1α): B ("B" is defined as 80%< substrate protein remaining %≤ 100%)
IKZF1 substrate protein remaining % (IKZF1): A ("A" is defined as 0% ≤ substrate protein remaining % ≤ 80%)

IC50 (MV-4-11): 300 to 500 nM
IC50 (Jurkat): 500 to 1000 nM
Compound: O=C1CCN(N2Cc3cc(CN4CCC(c5cccc(F)c5Cl)CC4)ccc3C2=O)C(=O)N1 [GT-06894, 1-(5-((4-(2-chloro-3-fluorophenyl)piperidin-1-yl)methyl)-1-oxoisoindolin-2-yl)dihydropyrimidine-2,4(1H,3H)-dione]
IKZF3 substrate protein remaining % (IKZF3): B ("B" is defined as 80%< substrate protein remaining %≤ 100%)
WEE1 substrate protein remaining % (WEE1): B ("B" is defined as 80%< substrate protein remaining %≤ 100%)
GSPT1 substrate protein remaining % (GSPT1): A ("A" is defined as 0% ≤ substrate protein remaining % ≤ 80%)
IKZF2 substrate protein remaining % (IKZF2): B ("B" is defined as 80%< substrate protein remaining %≤ 100%)
CK1α substrate protein remaining % (CK1α): B ("B" is defined as 80%< substrate protein remaining %≤ 100%)
IKZF1 substrate protein remaining % (IKZF1): A ("A" is defined as 0% ≤ substrate protein remaining % ≤ 80%)

IC50 (Jurkat): 500 to 1000 nM
Compound: O=C1CCN(N2C(=O)c3ccc(CN4CCN(c5ncc(C(F)(F)F)cc5Cl)CC4)cc3C2=O)C(=O)N1 [GT-07026, 5-((4-(3-chloro-5-(trifluoromethyl)pyridin-2-yl)piperazin-1-yl)methyl)-2-(2,4-dioxotetrahydropyrimidin-1(2H)-yl)isoindoline-1,3-dione]
IKZF3 substrate protein remaining % (IKZF3): B ("B" is defined as 80%< substrate protein remaining %≤ 100%)
WEE1 substrate protein remaining % (WEE1): A ("A" is defined as 0% ≤ substrate protein remaining % ≤ 80%)
GSPT1 substrate protein remaining % (GSPT1): A ("A" is defined as 0% ≤ substrate protein remaining % ≤ 80%)
IKZF2 substrate protein remaining % (IKZF2): B ("B" is defined as 80%< substrate protein remaining %≤ 100%)
CK1α substrate protein remaining % (CK1α): B ("B" is defined as 80%< substrate protein remaining %≤ 100%)
IKZF1 substrate protein remaining % (IKZF1): B ("B" is defined as 80%< substrate protein remaining %≤ 100%)

Compound: O=C1CCN(N2C(=O)c3ccc(CN4CCN(c5ncnc6sccc56)CC4)cc3C2=O)C(=O)N1 [GT-08090, 2-(2,4-dioxotetrahydropyrimidin-1(2H)-yl)-5-((4-(thieno[2,3-d]pyrimidin-4-yl)piperazin-1-yl)methyl)isoindoline-1,3-dione]
inhibition at 0.01 µM (H2228): 20 to 25%
inhibition at 0.5 µM (H2228): 20 to 25%
substrate protein remaining % IKZF3 (IKZF3): B (80%< substrate protein remaining %≤ 100%)
inhibition at 0.01 µM (MDA-MB-231): 15 to 18%
inhibition at 0.5 µM (MDA-MB-231): 18 to 25%
inhibition at 0.01 µM (MV-4-11): 60 to 80%
inhibition at 0.5 µM (MV-4-11): 60 to 80%
inhibition at 0.01 µM (H292): 15 to 20%
inhibition at 0.5 µM (H292): 15 to 20%
substrate protein remaining % WEE1 (WEE1): A (0% ≤ substrate protein remaining % ≤ 80%)
substrate protein remaining % GSPT1 (GSPT1): A (0% ≤ substrate protein remaining % ≤ 80%)
substrate protein remaining % IKZF2 (IKZF2): B (80%< substrate protein remaining %≤ 100%)
inhibition at 0.01 µM (MM.1S): 30 to 42%
inhibition at 0.5 µM (MM.1S): 42 to 60%
substrate protein remaining % CK1α (CK1α): A (0% ≤ substrate protein remaining % ≤ 80%)
substrate protein remaining % IKZF1 (IKZF1): B (80%< substrate protein remaining %≤ 100%)

Compound: O=C1CCN(N2Cc3cc(CN4CC=C(c5ncnc6sccc56)CC4)ccc3C2=O)C(=O)N1 [GT-08116, 1-(1-oxo-5-((4-(thieno[2,3-d]pyrimidin-4-yl)-3,6-dihydropyridin-1(2H)-yl)methyl)isoindolin-2-yl)dihydropyrimidine-2,4(1H,3H)-dione]
inhibition at 0.01 µM (H2228): 15 to 20%
inhibition at 0.5 µM (H2228): 20 to 25%
substrate protein remaining % IKZF3 (IKZF3): A (0% ≤ substrate protein remaining % ≤ 80%)
inhibition at 0.01 µM (MDA-MB-231): 25 to 40%
inhibition at 0.5 µM (MDA-MB-231): 25 to 40%
inhibition at 0.01 µM (MV-4-11): 40 to 60%
inhibition at 0.5 µM (MV-4-11): 80 to 100%
inhibition at 0.01 µM (H292): 15 to 20%
inhibition at 0.5 µM (H292): 15 to 20%
substrate protein remaining % WEE1 (WEE1): A (0% ≤ substrate protein remaining % ≤ 80%)
substrate protein remaining % GSPT1 (GSPT1): A (0% ≤ substrate protein remaining % ≤ 80%)
substrate protein remaining % IKZF2 (IKZF2): B (80%< substrate protein remaining %≤ 100%)
inhibition at 0.01 µM (MM.1S): 10 to 20%
inhibition at 0.5 µM (MM.1S): 60 to 80%
substrate protein remaining % CK1α (CK1α): A (0% ≤ substrate protein remaining % ≤ 80%)
substrate protein remaining % IKZF1 (IKZF1): A (0% ≤ substrate protein remaining % ≤ 80%)
